Holding throughout (type): cell-based
The target of assay [1] is human VR1 (Homo sapiens, UniProt Q8NER1). Particulars: for pEC50 hVR1: increase of intracellular calcium, human VR1, mean ± s.e. mean, n = 3-5, IA = inactive; for activity at VR1: result in words. In general terms: Calcium flux is commonly read through the fluorescence of an indicator in the cells.
Assay [2] concerns wild type HEK293 cells. In words: FLIPR cytoplasmic calcium (Fluo-3), wild type HEK293 cells. The following applies: result in words. The method, then:
(§1) The VR4 cDNA was inserted into the expression vector pcDNA3.1 V5-His (Invitrogen). Wildtype HEK293 cells, or HEK293 cells transfected with the human VR4:pcDNA3.1 V5-His construct, or mock transfected cells, or bovine chondrocytes, were seeded into 96-well microtitre plates at 25,000 cells/well and cultured overnight. The cells were then incubated with 4 microM Fluo-3 for 2 hrs at room temperature in the dark. Dye loaded cells were washed 4× with Tyrodes buffer: (NaCl, 145 mM; KCl, 2.5 mM; Hepes, 10 mM; Glucose, 10 mM; MgC12, 1.2 mM; CaCl2, 1.5 mM), which also contained 0.2% BSA but not probenecid. Agonists and antagonists were also prepared in Tyrodes buffer. Cells were preincubated for 30 mins with antagonist or buffer. Agonist addition and measurement of cytoplasmic calcium concentration was performed in the FLIPR (Smart et al., (2000) Br. J. Pharmacol. 129, 227-230).

For assay [3], the system named is HEK293 cells transfected with empty vector. In words: FLIPR cytoplasmic calcium (Fluo-3), HEK293 cells transfected with empty vector. Particulars: result in words. The method, then:
as §1

Assay [4] has as its target T1, human VR4 (Homo sapiens, UniProt Q9HBA0).
T1 construct: V5-His (vector-encoded); expressed in transfected cells; host or cells: HEK293
In words: FLIPR cytoplasmic calcium (Fluo-3), HEK293 cells transfected with human VR4. Particulars: for effect on intracellular calcium in HEK293-VR4 cells: result in words; for pEC50 hVR4: increase of intracellular calcium, mean ± s.e. mean, n = 3-5, IA = inactive; for effect on intracellular calcium in HEK293-VR4 cells / pEC50 hVR4: HEK293-VR4 cells. Here is the method: as §1

Assay [5] has as its system VR4 endogenously expressed by chondrocytes. In words: FLIPR cytoplasmic calcium (Fluo-3), bovine articular chondrocytes. Particulars: channel blocker against the 4α-PDD response. Here is the method:
as §1
The response was dependent upon extracellular calcium ions and was blocked by the channel blocker ruthenium red.

T1 sequence (Q9HBA0 whole entry): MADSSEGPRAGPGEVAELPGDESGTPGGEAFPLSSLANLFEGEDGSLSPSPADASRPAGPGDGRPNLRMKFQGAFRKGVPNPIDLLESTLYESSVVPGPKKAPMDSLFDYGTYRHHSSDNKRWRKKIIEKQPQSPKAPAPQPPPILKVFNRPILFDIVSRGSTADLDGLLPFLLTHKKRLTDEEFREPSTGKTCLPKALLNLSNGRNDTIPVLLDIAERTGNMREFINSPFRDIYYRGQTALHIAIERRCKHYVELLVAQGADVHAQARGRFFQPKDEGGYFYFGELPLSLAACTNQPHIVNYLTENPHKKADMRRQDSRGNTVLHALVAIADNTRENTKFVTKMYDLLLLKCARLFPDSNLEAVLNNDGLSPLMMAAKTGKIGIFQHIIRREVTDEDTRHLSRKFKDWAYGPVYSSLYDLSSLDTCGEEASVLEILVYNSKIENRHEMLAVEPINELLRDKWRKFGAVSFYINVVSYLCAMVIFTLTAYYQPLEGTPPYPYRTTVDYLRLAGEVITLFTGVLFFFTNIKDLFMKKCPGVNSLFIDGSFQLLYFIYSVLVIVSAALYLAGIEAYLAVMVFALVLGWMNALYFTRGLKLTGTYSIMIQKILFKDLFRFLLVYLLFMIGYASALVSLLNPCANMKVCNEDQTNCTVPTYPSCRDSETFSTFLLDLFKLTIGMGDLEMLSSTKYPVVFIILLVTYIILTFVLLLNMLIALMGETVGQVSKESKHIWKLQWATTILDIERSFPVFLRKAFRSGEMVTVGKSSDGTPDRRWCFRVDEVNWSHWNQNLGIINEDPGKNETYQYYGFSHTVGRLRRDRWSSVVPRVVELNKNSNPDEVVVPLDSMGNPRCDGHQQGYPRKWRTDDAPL
Sequence of human VR1 (Q8NER1 whole entry): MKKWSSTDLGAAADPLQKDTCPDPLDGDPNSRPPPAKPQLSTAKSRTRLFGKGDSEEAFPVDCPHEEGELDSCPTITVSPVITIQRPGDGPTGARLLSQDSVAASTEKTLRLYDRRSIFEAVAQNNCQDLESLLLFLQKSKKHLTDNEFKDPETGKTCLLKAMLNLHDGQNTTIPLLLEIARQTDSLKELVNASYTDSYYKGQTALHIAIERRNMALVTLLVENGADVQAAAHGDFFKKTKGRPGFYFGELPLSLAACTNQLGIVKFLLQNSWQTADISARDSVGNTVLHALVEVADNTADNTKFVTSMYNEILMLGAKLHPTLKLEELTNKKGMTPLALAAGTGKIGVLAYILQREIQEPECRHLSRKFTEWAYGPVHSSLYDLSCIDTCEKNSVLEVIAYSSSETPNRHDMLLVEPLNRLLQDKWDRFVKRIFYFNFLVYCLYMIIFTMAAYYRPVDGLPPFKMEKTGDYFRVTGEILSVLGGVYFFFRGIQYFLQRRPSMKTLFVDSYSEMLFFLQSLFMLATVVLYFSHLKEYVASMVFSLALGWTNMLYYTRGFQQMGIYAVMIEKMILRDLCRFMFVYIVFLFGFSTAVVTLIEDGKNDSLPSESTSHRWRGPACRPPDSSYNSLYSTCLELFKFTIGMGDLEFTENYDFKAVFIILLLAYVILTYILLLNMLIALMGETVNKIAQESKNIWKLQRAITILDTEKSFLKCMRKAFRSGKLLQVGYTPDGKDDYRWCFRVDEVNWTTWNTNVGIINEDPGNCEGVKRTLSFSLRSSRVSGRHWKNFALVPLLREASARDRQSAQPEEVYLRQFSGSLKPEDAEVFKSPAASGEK

On to `C=C(C)[C@]12C[C@@H](C)[C@@]34O[C@](Cc5ccccc5)(O[C@@H]1[C@@H]3C=C(COC(=O)Cc1ccc(O)c(OC)c1)C[C@]1(O)C(=O)C(C)=C[C@@H]41)O2` [RTX], for which the “pEC50 hVR1” value in assay [1] is listed as 8.93 ± 0.20.
In the case of `CCCCCCCCCC(=O)O[C@@H]1[C@@H](C)[C@@]2(O)[C@@H](C=C(CO)C[C@@]3(O)C(=O)C(C)=C[C@@H]23)[C@@H]2C(C)(C)[C@]12OC(=O)CCCCCCCCC` [4αPDD, 4α-phorbol-12,13-didecanoate], in assay [2], the “effect on intracellular calcium in wild type HEK293 cells” value is reported as “without effect”. Moreover, the “effect on intracellular calcium in cells transfected with empty vector” value in assay [3] is reported as “without effect”. The “activity at VR1” value in assay [1] is “inactive”. In assay [4], the “effect on intracellular calcium in HEK293-VR4 cells” value was “increased intracellular calcium” and the “pEC50 hVR4” value is listed as 5.73 ± 0.06. Moreover, the “selectivity VR4 over VR1” value in assay [4] (conclusion from pEC50 at hVR4 and hVR1) was “VR4 selective agonist”.
Consider `CCCCCCCCCCCCCC(=O)O[C@@H]1[C@@H](C)[C@@]2(O)[C@@H](C=C(CO)C[C@]3(O)C(=O)C(C)=C[C@@H]23)[C@@H]2C(C)(C)[C@]12OC(C)=O` [PMA, phorbol 12-myristate 13-acetate], for which, in assay [2], the “effect on intracellular calcium in wild type HEK293 cells” value is recorded as “without effect”. Also, the “effect on intracellular calcium in cells transfected with empty vector” value in assay [3] was “without effect”. Also, the “Emax at VR1” value in assay [1] (compared to capsaicin and RTX) is 0.46. Moreover, in assay [1], the “pEC50 hVR1” value was determined as 7.86 ± 0.06 and the “activity at VR1” value is “partial agonist”. In addition, in assay [4], the “effect on intracellular calcium in HEK293-VR4 cells” value is “increased intracellular calcium” and the “pEC50 hVR4” value is recorded as 6.64 ± 0.06.
As for `N.N.N.N.N.N.N.N.N.N.N.N.N.N.[Cl-].[Cl-].[Cl-].[Cl-].[Cl-].[Cl-].[O-2].[O-2].[Ru+3].[Ru+3].[Ru+4]` [ruthenium red], the “block of the response to 4α-PDD in bovine articular chondrocytes” value in assay [5] was “blocked”.

For the origin of these results see US20070161560A1, “Use of vanilloid 4 receptor and antagonists or agonists thereof for treating diseases associated with pain” (SmithKline Beecham plc, priority 2000, published 2007).
